Entries after “also recorded” stand apart in the source; their conditions may differ.
Key:
zebrafish larvae [1] = assay: Zebrafish MPP+ model, sleep parameters; assay type: in vivo; conditions: co-incubation with MPP+
Experimental: (§1) Six groups were included in each experiment. Immediately after spawning, 40 embryos per group were allocated to a 24-well plate and system water (solvent) was added to all wells. For assessment of neuroprotective potential, Compound 4 was added for a final concentration of 1, 10 and 20 µM (column 4-6). From the following day at 24 hpf, Compound 4 was co-incubated with 500 µM MPP+. MPP+ was prepared immediately prior to incubation and solutions were changed daily. At 120 hpf, drug treatment and MPP+ exposure was ceased and a 3X wash was performed with system water. Larvae were then relocated to 96-well plates for behavioral recording and placed in a separate recording room for 24-hour acclimation. Prior to behavioral recording, wells were fully replenished system water.
(§2) Naive group was exposed to solvent only. Vehicle group was exposed to solvent and vehicle corresponding to the vehicle of 20 µM drug solution (0.02% DMSO). MPP+ positive control was exposed to solvent and 500 µM MPP+. All compound groups were treated with the respective vehicle and respective concentration of compound 4.
Behavioral data was recorded from 1 p.m. on 6 dpf until shortly after wakening on 7 dpf. The recording consisted of a photomotor assay in which lights switch off and on in 30-minute intervals between 1 p.m. and 6 p.m., producing a consistent photomotor response. […]

Exon1 Q46 = assay: Circular dichroism of Exon1 Q46, predominantly α-helical state; assay type: biochemical; conditions: Exon1 Q46; conc. compound 0.647 µM
Experimental: Protein samples were diluted with buffer to 7.5 µM prior to Circular Dichroism (CD) measurements. Measurements were conducted at room temperature.
Four spectra at each measurement were taken every 1 nm from 200 to 260 nm, scanning at 50 nm/min with an averaging time of 1 sec. Spectra were obtained from samples in 20 mM phosphate, pH 7.4. Ten scans were averaged for each sample spectrum
Single-wavelength readings at 222 nm were obtained. After subtraction of the Trx contribution, the α-helical content of Httex1 was estimated from its mean residue ellipticity (MREHttex1) at 222 nm. This calculation was conducted as described by Bravo-Arredondo (Bravo-Arredondo, J.M. et al., J Biol Chem. 2018 Dec 21;293(51):19613-19623).
MRE Exon-1 […] and Q46 (Mean Residue Ellipticity) was measured every 1 sec for 300 sec; the 301 readings for each sample were averaged and MRE Trx subtracted. The number of amino acids in each sample to experience a change in helicity was estimated using a previously developed helix-coil transition model, which gave the change in fraction of helicity (ΔfHelix) by the following equation: […]
where MRE Exon1 Q26 or Q46 (MREHttex1 in the formula) describes the helix-coil transition, obtained from the difference between MRE Eon1 Q26 or Q46 at 222 nm of the fusion protein at the given temperature (in our case 37° C.) and the product of MRE Trx at 222 nm at the same temperature and the fraction of residues comprised by Trx in that particular construct, and
In order to calculate an equilibrium of the two states model, percent α-helicity was calculated using the relation of MREHttex1 = 0 and -34700 (deg cm^2 dmol^-1) for 0% and 100% helicity, respectively.
The CD measurements protocol for Compound 101 was the same as outlined above except that from 206 nm - 210 nm and 220 nm - 224 nm, the step size was 0.2 nm, and the bandwidth was 1 nm.

phospho-Tau (Ser404) = assay: Phospho-Tau (Ser404) levels in STHdh 7/7 cells by immunocytochemistry; assay type: cell-based, mouse
Source text: (§3) Effect of Compound 4 on Phospho-Tau (Ser396) levels - ST HDH Q7/7 (CH00097, Coriell Institute) striatal derived cell line from a knock in transgenic mouse containing HTT loci with a humanized Exon 1 containing 7 polyglutamine repeats. Diffuse mHTT quantified with immunocytochemistry as described in Example 33 with the exception that instead of 3B5H10 antibody for staining mHTT, phospho-Tau (Ser404) polyclonal antibody (ThermoFisher, Catalog 44-758G) was used to stain phospho-Tau (Ser396) and no heat shock was used.

mHTT = mHTT (Mus musculus, UniProt P42859, DEL28-30/G47A/INS49LLPQPQPP/INS60VA/L56P/P40L); assay: Diffuse mHTT levels in heat shocked STHdh 111/111 striatal cells by immunocytochemistry
Chain of mHTT (P42859 with tags, fused parts or gaps DEL28-30/P40L/G47A/INS49LLPQPQPP/L56P/INS60VA): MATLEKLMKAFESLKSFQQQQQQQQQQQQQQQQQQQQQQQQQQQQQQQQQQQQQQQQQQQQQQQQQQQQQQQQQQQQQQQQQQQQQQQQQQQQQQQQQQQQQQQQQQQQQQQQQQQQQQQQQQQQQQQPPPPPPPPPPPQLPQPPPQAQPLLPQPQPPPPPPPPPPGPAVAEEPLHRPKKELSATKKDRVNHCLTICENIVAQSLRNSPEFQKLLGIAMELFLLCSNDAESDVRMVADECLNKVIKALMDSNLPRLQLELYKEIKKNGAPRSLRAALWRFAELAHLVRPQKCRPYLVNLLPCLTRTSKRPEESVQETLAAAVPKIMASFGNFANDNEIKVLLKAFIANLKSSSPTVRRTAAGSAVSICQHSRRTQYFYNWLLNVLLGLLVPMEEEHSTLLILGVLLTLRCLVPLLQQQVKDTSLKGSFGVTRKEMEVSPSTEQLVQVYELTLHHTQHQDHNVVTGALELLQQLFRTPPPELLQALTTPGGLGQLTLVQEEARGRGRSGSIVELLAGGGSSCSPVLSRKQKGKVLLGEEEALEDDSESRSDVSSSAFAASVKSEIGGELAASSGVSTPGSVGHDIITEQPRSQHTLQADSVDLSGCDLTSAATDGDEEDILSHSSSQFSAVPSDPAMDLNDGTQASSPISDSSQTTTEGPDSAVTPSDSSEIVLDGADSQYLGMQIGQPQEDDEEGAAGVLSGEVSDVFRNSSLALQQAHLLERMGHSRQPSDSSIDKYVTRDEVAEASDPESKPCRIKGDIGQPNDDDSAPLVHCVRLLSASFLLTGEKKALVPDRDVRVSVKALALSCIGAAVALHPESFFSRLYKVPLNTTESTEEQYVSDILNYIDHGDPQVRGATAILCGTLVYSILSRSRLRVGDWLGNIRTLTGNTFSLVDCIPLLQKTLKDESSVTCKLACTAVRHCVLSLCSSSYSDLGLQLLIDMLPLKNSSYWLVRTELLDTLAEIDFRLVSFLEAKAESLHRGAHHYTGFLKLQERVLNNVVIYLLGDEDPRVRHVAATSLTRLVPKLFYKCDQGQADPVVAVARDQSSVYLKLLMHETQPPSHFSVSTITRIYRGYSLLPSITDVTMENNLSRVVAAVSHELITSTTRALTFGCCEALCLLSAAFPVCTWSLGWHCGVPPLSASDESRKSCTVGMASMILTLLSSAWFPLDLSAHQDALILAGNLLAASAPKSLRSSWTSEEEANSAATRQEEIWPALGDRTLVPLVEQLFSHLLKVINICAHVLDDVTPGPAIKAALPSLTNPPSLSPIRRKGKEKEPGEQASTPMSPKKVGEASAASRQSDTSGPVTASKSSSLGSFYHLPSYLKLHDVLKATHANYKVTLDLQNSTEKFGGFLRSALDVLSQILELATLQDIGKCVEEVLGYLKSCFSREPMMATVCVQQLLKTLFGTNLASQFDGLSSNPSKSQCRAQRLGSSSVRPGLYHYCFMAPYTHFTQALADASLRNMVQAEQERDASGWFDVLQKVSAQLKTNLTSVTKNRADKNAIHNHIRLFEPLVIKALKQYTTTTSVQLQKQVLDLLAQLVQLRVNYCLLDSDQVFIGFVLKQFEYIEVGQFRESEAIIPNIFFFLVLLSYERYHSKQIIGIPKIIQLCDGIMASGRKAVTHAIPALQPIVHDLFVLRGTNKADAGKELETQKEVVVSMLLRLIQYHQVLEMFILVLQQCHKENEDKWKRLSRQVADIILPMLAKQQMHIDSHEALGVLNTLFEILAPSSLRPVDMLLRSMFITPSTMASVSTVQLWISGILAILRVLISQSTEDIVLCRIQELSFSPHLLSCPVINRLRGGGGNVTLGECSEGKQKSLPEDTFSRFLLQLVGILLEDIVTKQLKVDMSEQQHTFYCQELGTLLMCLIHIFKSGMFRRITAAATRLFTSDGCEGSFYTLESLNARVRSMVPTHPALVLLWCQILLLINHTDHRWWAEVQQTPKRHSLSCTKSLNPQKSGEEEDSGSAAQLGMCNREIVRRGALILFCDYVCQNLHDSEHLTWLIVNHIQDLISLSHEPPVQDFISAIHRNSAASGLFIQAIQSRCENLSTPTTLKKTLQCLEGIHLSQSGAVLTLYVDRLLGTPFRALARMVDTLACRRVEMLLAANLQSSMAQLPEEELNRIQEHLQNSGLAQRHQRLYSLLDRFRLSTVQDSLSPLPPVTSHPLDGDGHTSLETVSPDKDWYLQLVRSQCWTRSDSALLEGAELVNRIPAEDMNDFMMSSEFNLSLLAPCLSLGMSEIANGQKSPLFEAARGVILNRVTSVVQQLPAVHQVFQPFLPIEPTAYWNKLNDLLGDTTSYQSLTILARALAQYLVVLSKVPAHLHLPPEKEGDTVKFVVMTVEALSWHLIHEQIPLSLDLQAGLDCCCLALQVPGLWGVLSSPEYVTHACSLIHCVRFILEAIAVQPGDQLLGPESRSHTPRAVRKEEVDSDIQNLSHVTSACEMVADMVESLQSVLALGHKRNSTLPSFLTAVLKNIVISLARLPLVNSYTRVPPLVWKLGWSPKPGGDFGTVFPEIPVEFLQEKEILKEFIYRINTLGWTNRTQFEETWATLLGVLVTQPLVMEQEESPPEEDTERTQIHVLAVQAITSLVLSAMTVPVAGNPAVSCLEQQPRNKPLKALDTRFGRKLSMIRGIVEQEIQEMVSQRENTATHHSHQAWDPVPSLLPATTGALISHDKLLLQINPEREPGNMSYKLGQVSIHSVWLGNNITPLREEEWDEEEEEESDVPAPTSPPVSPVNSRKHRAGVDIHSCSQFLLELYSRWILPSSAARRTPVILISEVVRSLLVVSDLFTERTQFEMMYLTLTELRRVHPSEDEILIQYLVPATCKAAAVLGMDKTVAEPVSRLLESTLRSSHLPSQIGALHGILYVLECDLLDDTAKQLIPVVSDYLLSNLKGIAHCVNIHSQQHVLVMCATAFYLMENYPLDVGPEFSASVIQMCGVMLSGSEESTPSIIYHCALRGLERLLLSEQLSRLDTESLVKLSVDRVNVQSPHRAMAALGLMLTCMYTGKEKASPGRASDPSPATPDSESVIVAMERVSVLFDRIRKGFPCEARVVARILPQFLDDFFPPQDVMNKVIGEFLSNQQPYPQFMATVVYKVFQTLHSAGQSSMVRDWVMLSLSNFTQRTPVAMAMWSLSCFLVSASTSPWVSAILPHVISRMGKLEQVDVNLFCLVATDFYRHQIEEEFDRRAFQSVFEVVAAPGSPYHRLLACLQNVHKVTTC
Experimental: (§4) Pre-Treatment of striatal cell line - First the medium was removed and new DMEM (DMEM, high glucose, HEPES, no phenol red) medium, supplemented with 10% fetal bovine serum (FBS), 1% Penicillin-Streptomycin, containing 10 µM compound was added. The cells were incubated at 33° C. for 24 hours.
(§5) Heat shock - Cells were heat shocked for 3 hours at 41° C.
(§6) Treatment - Medium was removed and new DMEM (DMEM, high glucose, HEPES, no phenol red) medium, supplemented with 1% fetal bovine serum (FBS), 1% Penicillin-Streptomycin, containing 10 µM compound was added. The cells were incubated at 33° C. for 48 hours.
Staining - Cells were permeabilized with 0.3% Triton X-100 in 4° C. PBS (pH 7.4 from ThermoFisher) for 10 minutes. Then the cells were washed two times with 4° C. PBS. Subsequently, cells are blocked with 3% NGS (normal goat serum from Thermo Fisher) in 4° C. PBS for 1 hour. Cells were incubated with primary antibodies in blocking buffer (PBS, 3% NGS, 0.02% NaN3) over night at 4° C. Primary antibodies were mouse antipolyglutamine monoclonal antibody 3B5H10 (Sigma-Aldrich) at 1:250 dilution and Guinea Pig anti-MAP2 polyclonal antibody (Synaptic Systems) at 1:500 dilution. 3B5H10 binds to diffuse mHTT. Diffuse mHTT is a monomeric and small oligomeric mHTT.
Cells were washed 2 times with 4° C. PBS, and then incubated with secondary antibodies at 1:2000 dilution in blocking buffer for 1 hour at room temperature. […] Cells were washed 2 times with 4° C. PBS, and then the nuclei were counterstain with DAPI (ThermoFisher) for 10 min at room temperature in the dark. Cells were washed 2 times with 4° C. PBS, and then 4° C. PBS was added to cells and then images were acquired.
Fluorescence Imaging - Imaging sessions were performed on a confocal microscope system (Carl Zeiss Microscopy) equipped with a dual spinning disk unit (Yokogawa). All components of the imaging system were controlled via the ZEN 2 software suite (Carl Zeiss Microscopy). The laser lines used were 405 nm, 488 nm and 639 nm to excite DAPI or the respective fluorophores. […] Nested t test was performed to calculate the significance amongst repeated measurements using GraphPad Prism software.
EC 50 value was determined with non-linear regression.

[2] = Pharmacokinetics, plasma and brain concentration by UHPLC-TOF; assay type: in vivo, mice; conditions: mouse, in vivo
Experimental: Compound 22 is an analog of Compound 7. […] Compound 22 pharmacokinetic properties was measured in three male CD1 mice at several timepoints. Compound 22 was dissolved in 10% DMSO, 10%, cremaphor, and 80% saline. The tested dose was 33.3 mg/kg body weight. Brain tissue was homogenized and protein precipitated with acetonitrile. […] As such, Compound 22 was selected for testing in an animal model of HD the R6/2 model. As described below, Compound 22 and its analogs were further tested for their effects on striatal cell viability and effects of mHTT levels.

STHdh 111/111 = assay: Morphology of striatal cells expressing mutated huntingtin; assay type: cell-based, mouse; conditions: versus not treated STHdh 111/111
[3] = tested on: STHdh 111/111 striatal cells; assay: Cell viability (CellTiter Glo) of heat shocked STHdh 111/111 striatal cells; assay type: cell-based, mouse; conditions: Mus musculus, STHdh 111/111; 10 µM; 48 hours treatment; read-out: Cell Viability striatal cells 3h heat shocked
Experimental: Cell culture - ST HDH Q111/111 (CH00095, Coriell Institute) striatal derived cell line were grown at 33° C. in DMEM (Sigma-Aldrich), supplemented with 10% fetal bovine serum (FBS), 1% Penicillin-Streptomycin (ThermoFisher Scientific), and 0.4 mg/ml G418 (Geneticin; Invitrogen). ST HDH Q111/111 are mouse striatal cells with polyQ length of 1111.
as §4, §5, §6
Cell Viability - Cell viability was measured according to manufacturer recommendations with CellTiter Glo (Promega). 96-well plates for used either for cell viability determination or cell staining.

zebrafish larvae [4] = assay: Zebrafish MPP+ motility model, photomotor assay; assay type: in vivo
Experimental: MPP+ selectively targets dopaminergic neurons; the putative mechanism is induction of K+ efflux, cell membrane hyperpolarization and inhibition of neuronal firing. This ultimately leads to an inhibition of complex I, a decrease in ATP production and promotion of the generation of reactive oxygen species upon accumulation in the mitochondria (3). The observed phenotype following exposure to 500 µM from 24 hours post fertilization (hpf) to 120 hpf is characterized by a decrease in movement during lights-on phases of a photomotor assay. In unpublished data below, representative locomotor perturbations of the distance moved and movement frequency is shown.
as §1, §2
Behavioral data was recorded from 1 p.m. on 6 dpf until shortly after wakening on 7 dpf. The recording consisted of a photomotor assay in which lights switch off and on in 30-minute intervals between 1 p.m. and 6 p.m., producing a consistent photomotor response. […] Upon lights being turned on again, the larvae cease movement followed by a return to baseline. This cycle is repeated five times. Following the last lights-off phase, constant illumination is presented until lights turn off at 10 p.m. for the night. Lights turn on again at 8 a.m. the following day.
Average movement frequency was measured during 30-minute lights-on phases of photomotor assay. Movement bouts were defined as initiated when velocity exceeded a threshold of 2 mm/s and ceased when velocity fell below 1 mm/s.
Distance moved (mm) was defined as the average distance moved during 30-minute lights-on phases of photomotor assay.
Data was obtained using EthoVision XT (Version 11.5.2016, Noldus) and exported to Microsoft Excel for data analysis. […]

phospho-Tau (Ser396) = assay: Phospho-Tau (Ser396) levels in STHdh 7/7 cells by immunocytochemistry; assay type: cell-based, mouse
Experimental: as §3, with “Immunocytochemistry was conducted” for “Diffuse mHTT quantified with immunocytochemistry”, “(Ser396)” for “(Ser404)”, “44-752G)” for “44-758G)”, “(Ser396).” for “(Ser396) and no heat shock was used.”

[5] = 1, 10 and 20 µM with 500 µM MPP+

## CCc1c(C)[nH]c2ccc(C(=O)NCCN(CC)CC)cc12 [Compound 4, N-(2-(diethylamino)ethyl)-3-ethyl-2-methyl-1H-indole-5-carboxamide]
Zebrafish larvae [1]
  sleep parameters (sleep fragmentation, sleep ratio, velocity, wake bout duration, sleep bout duration): No statistically significant difference; also recorded: does neither reduce nor increase sleep
Exon1 Q46
  Fraction Helix fH (%): 20.0%
phospho-Tau (Ser404); STHdh 7/7, 10 µM, no heat shock, in comparison to untreated cells
  Phospho-Tau (Ser404) reduced by: 40%
phospho-Tau (Ser404); STHdh 7/7 exposed to 10 mM ammonium chloride
  Phospho-Tau (Ser404) reduction: could not reduce
mHTT
  EC50: 130 nM
mHTT; STHdh 111/111, in comparison to untreated cells
  Diffuse mHTT reduced by: 68%
[2]
  crossing of the blood brain barrier: can cross the blood brain barrier
STHdh 111/111
  morphology of STHdh 111/111: improved cell viability, dendrite outgrowth and increased cell size
[3]
  viability at 10 µM: 125%
Zebrafish larvae [4]; [5]
  distance moved, drug treatment groups compared to MPP+: no significant difference
  movement frequency, drug treatment groups compared to MPP+: no significant difference
Zebrafish larvae [4]; concentrations ~10 µM and ~1 µM with MPP+
  overall movement during assessment of neuroprotection: subtle increase in overall movement
phospho-Tau (Ser396); STHdh 7/7, 10 µM, in comparison to untreated cells
  Phospho-Tau (Ser396) reduced by: 26.3%
phospho-Tau (Ser396); STHdh 7/7 exposed to 10 mM ammonium chloride, 5 µM
  Phospho-Tau (Ser396) reduction: could not reduce
phospho-Tau (Ser396); STHdh 7/7 exposed to ammonium chloride, 10 µM
  Phospho-Tau (Ser396) reduction: 15.2%

Reference: US20230218573A1, “INDOLE COMPOUNDS FOR THE TREATMENT OF NEURODEGENERATIVE DISEASES” (GALYAN BIO, INC., priority 2020, published 2023)
